Measured values published in patent US5143911A, “Antibiotic C-3 di-hydroxyphenyl substituted cephalosporin compounds, compositions and method of use thereof” (Bristol-Myers Squibb Company, priority 1990, dated 1992).
Values after ≈ are worked out from the molar mass of the structure shown.

Key:
[1] = system: B. fragilis CUH-108; assay: In vitro activity against anaerobes (MIC), two-fold serial agar dilution, GAM agar; format: cell-based; conditions: Bacteroides fragilis, CUH108, Gn, Beta-Lactamase(+), Clindamycin-resistant
Experimental: In vitro activity against anaerobic bacteria was determined on eight strains of B. fragilis by two-fold serial agar dilution method in GAM agar.

[2] = system: B. fragilis A 22695; assay: as above; format: cell-based; conditions: Bacteroides fragilis, A22695, Gn, Beta-Lactamase(+)
[3] = system: C. difficile A 21675; assay: In vitro activity against anaerobes (MIC); format: cell-based; conditions: Clostridioides difficile, A21675, Gp, Clindamycin-resistant
[4] = system: E. coli Juhl; assay: MIC against the infecting organism (Table 2); conditions: Escherichia coli
[5] = system: Penicillin (PC)sensitive S. (5 strains); assay: MIC, two-fold serial agar dilution, Mueller-Hinton agar (geometric mean, group Gp-Ia); format: cell-based, S. aureus; conditions: Staphylococcus aureus
Experimental: (§1) For a primary evaluation of some representative compounds of this invention, minimum inhibitory concentrations (MIC's) were determined against 32 strains of test organisms by two-fold serial agar dilution method in Mueller-Hinton agar.
Gp-Ia: Penicillin (PC)sensitive S.

[6] = system: CETresistant E. coli(3), and Kl. pneumoniae(2); assay: MIC, two-fold serial agar dilution, Mueller-Hinton agar (geometric mean, group Gn-Ib); format: cell-based; conditions: Escherichia coli, read-out: Geometric Mean of MIC, Gn-Ib
Experimental: as §1
GnIb: CETresistant E. coli(3), and Kl. pneumoniae(2)

[7] = system: S. aureus Smith; conditions: Staphylococcus aureus, in Mus musculus, im, read-out: PD50
[8] = system: B. fragilis A 22693; assay: In vitro activity against anaerobes (MIC), two-fold serial agar dilution, GAM agar; format: cell-based; conditions: Bacteroides fragilis, A22693, Gn, Beta-Lactamase(-)
[9] = system: S. aureus Smith; assay: MIC against the infecting organism (Table 2); conditions: Staphylococcus aureus
[10] = system: B. fragilis A 22021; assay: In vitro activity against anaerobes (MIC), two-fold serial agar dilution, GAM agar; format: cell-based; conditions: Bacteroides fragilis, A22021, Gn, Beta-Lactamase(-)
[11] = system: Cephalothin (CET)sensitive E. coli(2), Kl. pneumoniae(1) and Pr. mirabilis(2); assay: MIC, two-fold serial agar dilution, Mueller-Hinton agar (geometric mean, group Gn-Ia); format: cell-based; conditions: 5 strains
Experimental: as §1
GnIa: Cephalothin (CET)sensitive E. coli(2)*, Kl. pneumoniae(1) and Pr.

[12] = system: E. coli Juhl; conditions: Escherichia coli, in Mus musculus, im, read-out: PD50
[13] = system: M. morganii(1), Ent. cloacae(2), and Ser. marcescens(2); assay: MIC, two-fold serial agar dilution, Mueller-Hinton agar (geometric mean, group Gn-II); format: cell-based; conditions: 5 strains
Experimental: as §1
GnII: M. morganii(1), Ent. cloacae(2), and Ser. marcescens(2)

[14] = system: B. fragilis A 22534; assay: In vitro activity against anaerobes (MIC), two-fold serial agar dilution, GAM agar; format: cell-based; conditions: Bacteroides fragilis, A22534, Gn, Beta-Lactamase(+)
[15] = system: P. acnes A 21933; assay: In vitro activity against anaerobes (MIC); format: cell-based; conditions: Cutibacterium acnes, A21933, Gp
[16] = system: C. perfringens A9635; assay: microbe, parasite or virus in culture; format: cell-based; conditions: Clostridium perfringens
[17] = system: P. aeruginosa 9843A; assay: MIC against the infecting organism (Table 2); conditions: Pseudomonas aeruginosa
[18] = system: B. fragilis A 21916; assay: In vitro activity against anaerobes (MIC), two-fold serial agar dilution, GAM agar; format: cell-based; conditions: Bacteroides fragilis, A21916, Gn, Beta-Lactamase(-)
[19] = system: PCresistant S. aureus; assay: MIC, two-fold serial agar dilution, Mueller-Hinton agar (geometric mean, group Gp-Ib); format: cell-based; conditions: Staphylococcus aureus, penicillin-resistant S. aureus, 5 strains
Experimental: as §1
GpIb: PCresistant S. aureus

[20] = system: B. fragilis A 22053; assay: In vitro activity against anaerobes (MIC), two-fold serial agar dilution, GAM agar; format: cell-based; conditions: Bacteroides fragilis, A22053, Gn, Beta-Lactamase(-)
[21] = system: Ps. aeruginosa (7); assay: MIC, two-fold serial agar dilution, Mueller-Hinton agar (geometric mean, group Gn-III); format: cell-based; conditions: Pseudomonas aeruginosa, 7 strains
Experimental: as §1
GnIII: Ps. aeruginosa (7)

[22] = system: B. fragilis A 22533; assay: In vitro activity against anaerobes (MIC), two-fold serial agar dilution, GAM agar; format: cell-based; conditions: Bacteroides fragilis, A22533, Gn, Beta-Lactamase(+)

## CC(C)(O/N=C(\C(=O)NC1C(=O)N2C(C(=O)O)=C(/C=C/COC(=O)c3ccc(O)c(O)c3)CS[C@H]12)c1csc(N)n1)C(=O)O (stereo partly drawn) [Ic, 7-[(Z)-2-(2-Aminothiazol-4-yl)-2-(1-carboxy-1-methylethoxyimino)acetamido]-3-[(E)-3-(3,4-dihydroxybenzoyloxy)-1-propen-1yl]-3-cephem-4-carboxylic acid]
[1]
  MIC: 12.5 µg/mL (≈ 19.3 µM)
[2]
  MIC: 3.1 µg/mL (≈ 4.79 µM)
[3]
  MIC: 50 µg/mL (≈ 77.2 µM)
[4]
  MIC: 0.2 µg/mL (≈ 0.309 µM)
[5]
  MIC: 8.3 µg/mL (≈ 12.8 µM)
[6]
  MIC: 0.019 µg/mL (≈ 0.0293 µM)
[7]
  ED50: 2.2 mg/kg
[8]
  MIC: 3.1 µg/mL (≈ 4.79 µM)
[9]
  MIC: 12.5 µg/mL (≈ 19.3 µM)
[10]
  MIC: 0.2 µg/mL (≈ 0.309 µM)
[11]
  MIC: 0.022 µg/mL (≈ 0.034 µM)
[12]
  ED50: 0.062 mg/kg
[13]
  MIC: 0.17 µg/mL (≈ 0.262 µM)
[14]
  MIC: > 100 µg/mL
[15]
  MIC: 0.8 µg/mL (≈ 1.24 µM)
[16]
  MIC: 0.4 µg/mL (≈ 0.618 µM)
[17]
  MIC: 0.2 µg/mL (≈ 0.309 µM)
[18]
  MIC: 0.8 µg/mL (≈ 1.24 µM)
[19]
  MIC: 13 µg/mL (≈ 20.1 µM)
[20]
  MIC: 0.8 µg/mL (≈ 1.24 µM)
[21]
  MIC: 0.82 µg/mL (≈ 1.27 µM)
[22]
  MIC: > 100 µg/mL

## CO/N=C(\C(=O)NC1C(=O)N2C(C(=O)O)=C(/C=C/COC(=O)Nc3ccc(O)c(O)c3)CSC12)c1csc(N)n1 (stereo not drawn) [Ie, 7-[(Z)-2-(2-Aminothiazol-4-yl)-2-methoxyiminoacetamido]-3-[(E)-3-(N-3,4-dihyroxyphenyl)carbamoyloxy-1-propen-1-yl]-3-cephem-4-carboxylic acid]
[1]
  MIC: 100 µg/mL (≈ 169 µM)
[2]
  MIC: 25 µg/mL (≈ 42.3 µM)
[3]
  MIC: 50 µg/mL (≈ 84.7 µM)
[5]
  MIC: 6.3 µg/mL (≈ 10.7 µM)
[6]
  MIC: 0.46 µg/mL (≈ 0.779 µM)
[8]
  MIC: 3.1 µg/mL (≈ 5.25 µM)
[10]
  MIC: 0.4 µg/mL (≈ 0.677 µM)
[11]
  MIC: 0.23 µg/mL (≈ 0.389 µM)
[13]
  MIC: 3.6 µg/mL (≈ 6.1 µM)
[14]
  MIC: > 100 µg/mL
[15]
  MIC: 1.6 µg/mL (≈ 2.71 µM)
[16]
  MIC: 1.6 µg/mL (≈ 2.71 µM)
[18]
  MIC: 6.3 µg/mL (≈ 10.7 µM)
[19]
  MIC: 7.2 µg/mL (≈ 12.2 µM)
[20]
  MIC: 3.1 µg/mL (≈ 5.25 µM)
[21]
  MIC: 50 µg/mL (≈ 84.7 µM)
[22]
  MIC: > 100 µg/mL
